Assay results as given in patent publication US10640534B2 (Agios Pharmaceuticals, Inc., priority 2012, dated 2020).

tested on: U87MG cells; assay: Cellular assay, inhibition of 2-HG production in U87MG cells; format: cell-based; conditions: Homo sapiens, U-87 MG, 48 h
Procedure: Cells (HT1080 or U87MG) are grown in T125 flasks in DMEM containing 10% FBS, 1× penicillin/streptomycin and 500 ug/mL G418 (present in U87MG cells only). They are harvested by trypsin and seeded into 96 well white bottom plates at a density of 5000 cell/well in 100 ul/well in DMEM with 10% FBS. […] Cells are incubated overnight at 37° C. in 5% CO2. The next day test compounds are made up at 2× the final concentration and 100 ul are added to each cell well. The final concentration of DMSO is 0.2% and the DMSO control wells are plated in row G. The plates are then placed in the incubator for 48 hours. […] The cell plate is placed back in the incubator for another 24 hours. At 72 hours post compound addition, 10 mL/plate of Promega Cell Titer Glo reagent is thawed and mixed. The cell plate is removed from the incubator and allowed to equilibrate to room temperature. Then 100 ul of Promega Cell Titer Glo reagent is added to each well of media. The cell plate is then placed on an orbital shaker for 10 minutes and then allowed to sit at room temperature for 20 minutes. The plate is then read for luminescence with an integration time of 500 ms.

| IC50 [nM] | SMILES |
| --- | --- |
| < 100 | CN(C)c1cccc(N(C(=O)[C@@H]2CCC(=O)N2c2cc(C#N)ccn2)[C@H](C(=O)NC2CC(F)(F)C2)c2ccccc2Cl)c1 [Compound 161, (S)—N—((S)-1-(2-Chlorophenyl)-2-(3,3-difluorocyclobutylamino)-2-oxoethyl)-1-(4-cyanopyridin-2-yl)-N-(3-(dimethylamino)phenyl)-5-oxopyrrolidine-2-carboxamide] |
| < 100 | CC(C)(C)OC(=O)N1CC(=O)N(c2nccc(C#N)n2)[C@H](C(=O)N(c2cc(F)cc(F)c2)[C@H](C(=O)NC2CCC(F)(F)CC2)c2ccccc2Cl)C1 [Compound 93, (S)-tert-Butyl 3-(((S)-1-(2-chlorophenyl)-2-((4,4-difluorocyclohexyl)amino)-2-oxoethyl)(3,5-difluorophenyl)carbamoyl)-4-(4-cyanopyrimidin-2-yl)-5-oxopiperazine-1-carboxylate] |
| < 100 | N#Cc1ccnc(N2C(=O)CC[C@H]2C(=O)N(c2cc(F)cc(F)c2)[C@H](C(=O)NC2CC(F)(F)C2)c2c(Cl)cccc2Cl)c1 [Compound 199, (S)-1-(4-Cyanopyridin-2-yl)-N—((S)-1-(2,6-dichlorophenyl)-2-((3,3-difluorocyclobutyl)amino)-2-oxoethyl)-N-(3,5-difluorophenyl)-5-oxopyrrolidine-2-carboxamide] |
| < 100 | N#Cc1cc(F)cc(N(C(=O)[C@@H]2CCC(=O)N2c2nccc(C#N)n2)[C@H](C(=O)NC2CCC(F)(F)CC2)c2ccccc2Cl)c1 [Compound 185, (S)—N—((S)-1-(2-Chlorophenyl)-2-((4,4-difluorocyclohexyl)amino)-2-oxoethyl)-N-(3-cyano-5-fluorophenyl)-1-(4-cyanopyrimidin-2-yl)-5-oxopyrrolidine-2-carboxamide] |
| < 100 | N#Cc1ccnc(N2C(=O)CC[C@H]2C(=O)N(c2cccc3[nH]cnc23)C(C(=O)NC2CCC(F)(F)CC2)c2ccccc2Cl)c1 (stereo partly drawn) [Compound 141, (2S)—N-(1H-benzo[d]imidazol-7-yl)-N-(1-(2-chlorophenyl)-2-((4,4-difluorocyclohexyl)amino)-2-oxoethyl)-1-(4-cyanopyridin-2-yl)-5-oxopyrrolidine-2-carboxamide] |
| < 100 | CS(=O)(=O)c1cccc(N(C(=O)[C@@H]2CCC(=O)N2c2cc(C#N)ccn2)C(C(=O)NC2CC(F)(F)C2)c2ccccc2Cl)c1 (stereo partly drawn) [Compound 96, (2S)—N-(1-(2-Chlorophenyl)-2-((3,3-difluorocyclobutyl)amino)-2-oxoethyl)-1-(4-cyanopyridin-2-yl)-N-(3-(methylsulfonyl)phenyl)-5-oxopyrrolidine-2-carboxamide] |
| 100 to 500 | O=C(NC1CC(F)(F)C1)[C@H](c1ccccc1Cl)N(C(=O)[C@@H]1CCC(=O)N1c1nccs1)c1cccc(F)c1 [Compound 14] |
| < 100 | N#Cc1ccnc(N2C(=O)CC[C@H]2C(=O)N(c2cc(F)cc(C3CC3)c2)[C@H](C(=O)NC2CCC(F)(F)CC2)c2ccccc2Cl)c1 [Compound 202, (S)—N—((S)-1-(2-Chlorophenyl)-2-((4,4-difluorocyclohexyl)amino)-2-oxoethyl)-1-(4-cyanopyridin-2-yl)-N-(3-cyclopropyl-5-fluorophenyl)-5-oxopyrrolidine-2-carboxamide] |
| < 100 | N#Cc1ccnc(N2C(=O)CC[C@H]2C(=O)N(c2cncc(F)c2)[C@H](C(=O)NC2CCC(F)(F)CC2)c2ccccc2Cl)c1 [Compound 193, (S)—N—((S)-1-(2-Chlorophenyl)-2-(4,4-difluorocyclohexylamino)-2-oxoethyl)-1-(4-cyanopyridin-2-yl)-N-(5-fluoropyridin-3-yl)-5-oxopyrrolidine-2-carboxamide] |
| < 100 | N#Cc1ccnc(N2C(=O)CC[C@H]2C(=O)N(c2cccc(OC(F)F)c2)[C@H](C(=O)NC2CC(F)(F)C2)c2ccccc2Cl)n1 [Compound 194, (S)—N—((S)-1-(2-Chlorophenyl)-2-((3,3-difluorocyclobutyl)amino)-2-oxoethyl)-1-(4-cyanopyrimidin-2-yl)-N-(3-(difluoromethoxy)phenyl)-5-oxopyrrolidine-2-carboxamide] |
| 100 to 500 | O=C(NC1CC(F)(F)C1)[C@H](c1ccccc1Cl)N(C(=O)[C@@H]1COCC(=O)N1c1ncccn1)c1cccc(F)c1 [Compound 30, (S)—N—((S)-1-(2-chlorophenyl)-2-((3,3-difluorocyclobutyl)amino)-2-oxoethyl)-N-(3-fluorophenyl)-5-oxo-4-(pyrimidin-2-yl)morpholine-3-carboxamide] |
| < 100 | N#Cc1ccnc(N2C(=O)CC[C@H]2C(=O)N(c2cc(F)cc(F)c2)[C@H](C(=O)NC2CC(F)(F)C2)c2ccccc2Cl)c1 [Compound 71, (S)—N—((S)-1-(2-Chlorophenyl)-2-((3,3-difluorocyclobutyl)amino)-2-oxoethyl)-1-(4-cyanopyridin-2-yl)-N-(3,5-difluorophenyl)-5-oxopyrrolidine-2-carboxamide] |
| < 100 | N#Cc1ccnc(N2C(=O)CC[C@H]2C(=O)N(c2cc(F)cc(F)c2)[C@H](C(=O)NC2CC(F)(F)C2)c2ccc(Cl)cc2Cl)c1 [Compound 196, (S)-1-(4-Cyanopyridin-2-yl)-N—((S)-1-(2,4-dichlorophenyl)-2-((3,3-difluorocyclobutyl)-amino)-2-oxoethyl)-N-(3,5-difluorophenyl)-5-oxopyrrolidine-2-carboxamide] |
| < 100 | N#Cc1ccnc(N2C(=O)CC[C@H]2C(=O)N(c2cc(F)cc(F)c2)[C@H](C(=O)NC2CC(F)(F)C2)c2ccccc2)c1 [Compound 210, (S)-1-(4-Cyanopyridin-2-yl)-N—((S)-2-(3,3-difluorocyclobutylamino)-2-oxo-1-phenylethyl)-N-(3,5-difluorophenyl)-5-oxopyrrolidine-2-carboxamide] |
| < 100 | O=C(NC1CCC(F)(F)CC1)[C@H](c1ccccc1Cl)N(C(=O)[C@@H]1CCC(=O)N1c1ncccn1)c1cccc(F)c1 [Compound 4, (S)—N—((S)-1-(2-chlorophenyl)-2-((4,4-difluorocyclohexyl)amino)-2-oxoethyl)-N-(3-fluorophenyl)-5-oxo-1-(pyrimidin-2-yl)pyrrolidine-2-carboxamide] |
| < 100 | N#Cc1cc(C#N)cc(N(C(=O)[C@@H]2CCC(=O)N2c2cc(C#N)ccn2)C(C(=O)NC2CC(F)(F)C2)c2ccccc2Cl)c1 (stereo partly drawn) [Compound 191, (2S)—N-(1-(2-Chlorophenyl)-2-((3,3-difluorocyclobutyl)amino)-2-oxoethyl)-1-(4-cyanopyridin-2-yl)-N-(3,5-dicyanophenyl)-5-oxopyrrolidine-2-carboxamide] |
| < 100 | N#Cc1ccnc(N2C(=O)CC[C@H]2C(=O)N(c2cccc(C3CC3)c2)[C@H](C(=O)NC2CC(F)(F)C2)c2ccccc2Cl)c1 [Compound 173, (S)—N—((S)-1-(2-Chlorophenyl)-2-((3,3-difluorocyclobutyl)amino)-2-oxoethyl)-1-(4-cyanopyridin-2-yl)-N-(3-cyclopropylphenyl)-5-oxopyrrolidine-2-carboxamide] |
| < 100 | N#Cc1ccnc(N2C(=O)CC[C@H]2C(=O)N(c2cncc(F)c2)[C@H](C(=O)NC2CC(F)(F)C2)c2ccccc2F)c1 [Compound 148, (S)-1-(4-Cyanopyridin-2-yl)-N—((S)-2-((3,3-difluorocyclobutyl)amino)-1-(2-fluorophenyl)-2-oxoethyl)-N-(5-fluoropyridin-3-yl)-5-oxopyrrolidine-2-carboxamide] |
| < 100 | N#Cc1ccnc(N2C(=O)CN(CCO)C[C@H]2C(=O)N(c2cc(F)cc(F)c2)[C@H](C(=O)NC2CC(F)(F)C2)c2ccccc2Cl)c1 [Compound 107, (S)—N—((S)-1-(2-chlorophenyl)-2-((3,3-difluorocyclobutyl)amino)-2-oxoethyl)-1-(4-cyanopyridin-2-yl)-N-(3,5-difluorophenyl)-4-(2-hydroxyethyl)-6-oxopiperazine-2-carboxamide] |
| < 100 | [2H]c1c([2H])c([2H])c([C@@H](C(=O)NC2CC(F)(F)C2)N(C(=O)[C@@H]2CCC(=O)N2c2cc(C#N)ccn2)c2cc(F)cc(F)c2)c(Cl)c1[2H] [Compound 163] |
| < 100 | N#Cc1ccnc(N2C(=O)CC[C@H]2C(=O)N(c2cccc(F)c2F)[C@H](C(=O)NC2CC(F)(F)C2)c2ccccc2Cl)c1 [Compound 188, (S)—N—((S)-1-(2-Chlorophenyl)-2-((3,3-difluorocyclobutyl)amino)-2-oxoethyl)-1-(4-cyanopyridin-2-yl)-N-(2,3-difluorophenyl)-5-oxopyrrolidine-2-carboxamide] |
| 100 to 500 | O=C(NC1CC(F)(F)C1)C(c1ccccc1Cl)N(C(=O)[C@@H]1CCC(=O)N1c1ccccc1)c1cccc(F)c1 (stereo partly drawn) [Compound 23] |
| < 100 | N#Cc1ccnc(N2C(=O)[C@H](F)C[C@H]2C(=O)N(c2cccc(F)c2)[C@H](C(=O)NC2CCC(F)(F)CC2)c2ccccc2Cl)c1 [Compound 151, (2S,4R)—N—((S)-1-(2-Chlorophenyl)-2-((4,4-difluorocyclohexyl)amino)-2-oxoethyl)-1-(4-cyanopyridin-2-yl)-4-fluoro-N-(3-fluorophenyl)-5-oxopyrrolidine-2-carboxamide] |
| 100 to 500 | N#Cc1ccnc(N2C(=O)[C@H](O)C[C@H]2C(=O)N(c2cccc(F)c2)[C@@H](C(=O)NC2CCC(F)(F)CC2)c2ccccc2Cl)n1 [Compound 122, (2S,4R)—N—((R)-1-(2-Chlorophenyl)-2-((4,4-difluorocyclohexyl)amino)-2-oxoethyl)-1-(4-cyanopyrimidin-2-yl)-N-(3-fluorophenyl)-4-hydroxy-5-oxopyrrolidine-2-carboxamide] |
